According to PMC6687188, “Novel lactate dehydrogenase inhibitors with in vivo efficacy against Cryptosporidium parvum” (PLoS Pathogens, 2019):

Molecular target: recombinant CpLDH protein (Cryptosporidium parvum, UniProt Q9GT92, F198L/K295E/R251K)
Assay: not given

| Structure (SMILES) | MEAN CpLDH INHIBITION (%) | effect on catalytic activity of recombinant CpLDH (in words) |
| --- | --- | --- |
| Cc1ccc2c(sc(-c3ccc4c(c3)sc(-c3ccc(N(C)C)cc3)[n+]4C)[n+]2C)c1S(=O)(=O)[O-].[Cl-] [NSC71948] | 60.47% | – |
| O=c1oc2cc(O)ccc2c2oc3cc(O)ccc3c12 [NSC22842] | 3.48% | – |
| O=[N+]([O-])c1ccc2c(N=Nc3c(O)ccc4ccccc34)c(O)cc(S(=O)(=O)[O-])c2c1.[Na+] [NSC73413] | 54.98% | – |
| O=C1/C(=C/c2ccccc2)CN(C(=O)/C=C/c2ccccc2)C/C1=C\c1ccccc1 [NSC638634] | 0.30% | – |
| O=C(O)[C@@H]1[C@H](C(=O)O)[C@]2(Cl)C(Cl)=C(Cl)[C@@]1(Cl)C2(Cl)Cl [NSC22225] | – | significantly (P < 0.05) inhibited |
| O=C(CC(=O)C(F)(F)F)c1csc2ccccc12 [NSC80396] | -8.51% | – |
| CCOC(C)C(C=NNC(N)=S)=NNC(N)=S (stereo not shown) [NSC82116] | 10.05% | – |
| CCCCCC(/C=C/[C@@H]1CC(=O)C[C@H]1O[Si](C)(C)C(C)(C)C)OCOCCOC (stereo partly shown) [NSC689228] | -5.60% | – |
| CO[C@H]1/C=C/O[C@@]2(C)Oc3c(C)c(O)c4c(c3C2=O)C(=O)C=C(NC(=O)/C(C)=C\C=C\[C@H](C)[C@H](OC=O)[C@@H](C)[C@@H](O)[C@@H](C)[C@H](OC(C)=O)[C@@H]1C)C4=O [NSC239375] | -42.34% | – |
| CCN1CCC(O)(/C=C/c2ccc(C)cc2)C(C(=O)/C=C/c2ccc(C)cc2)C1.Cl (stereo not shown) [NSC657298] | -42.34% | – |
| COc1cc(C(C)c2cc3c(cc2OCCO)OCO3)cc(OC)c1OC (stereo not shown) [NSC352876] | -6.93% | – |
| CC1(C)[C@@H]2CC[C@@]1(CS(=O)(=O)O)C(=O)C2.CN1[C@@H](c2ccccc2)CC(=NO)C[C@H]1c1ccccc1 [NSC363744] | -9.54% | – |
| O=C(c1ccccc1)C(c1ccccc1)C1(O)C(=O)Nc2c(Cl)cc(Cl)cc21 (stereo not shown) [NSC635312] | -41.63% | – |
| CCOC(OC1=C(C#N)CCC1)C(C)[Se]c1ccccc1 (stereo not shown) [NSC646189] | -21.95% | – |
| C[CH2][Ge]1([CH2]C)[CH2]CC2(CCN(CCCN(C)C)C2)C[CH2]1 [NSC192965] | -81.94% | – |
| Cc1cc(Cl)ccc1N1C(=O)C(=O)C(c2nc3ccccc3o2)C(=O)C1=O [NSC623051] | -30.82% | – |
| Cc1nn(-c2ccccc2)c2c1CC(=O)Nc1ccccc1-2 [NSC662553] | -64.36% | – |
| CCCCOCc1cc(CN2CCN(C)CC2)c(O)c2ncccc12 [NSC20514] | -30.20% | – |
| C/C(=N\Nc1nc2ccccc2s1)c1ccncn1 [NSC693632] | 0.06% | – |
| CN1CCN(CN2C(=O)C3C4C=CC(C3C2=O)C2C3C(=O)N(CN5CCN(C)CC5)C(=O)C3C42)CC1 (stereo not shown) [NSC361813] | -202.91% | – |
| C=C(C)[C@@H]1CC[C@]2(CO)CC[C@]3(C)[C@H](CC[C@@H]4[C@@]5(C)CC[C@H](O)C(C)(C)[C@@H]5CC[C@]43C)[C@@H]12 [NSC4644] | -25.29% | – |
| Oc1[nH]c2ccccc2c1N=Nc1nc(-c2ccc(Br)cc2)cs1 [NSC657456] | -18.36% | – |

| Structure (SMILES) | MEAN CpLDH INHIBITION (%) | effect on catalytic activity of recombinant CpLDH (in words) |
| --- | --- | --- |
| O=C1C=C(N2CCNCC2)C(=O)c2c(O)ccc(O)c21 [NSC658144] | -3.51% | – |
| N#CCCN(c1ccc(C=O)cc1)S(=O)(=O)c1ccccc1 [NSC637914] | -47.07% | – |
| CC(=O)[O-].Cc1c2cc[n+](CCN3CCCCC3)cc2c(C)c2c1[nH]c1ccc(O)cc12 [NSC311153] | -30.69% | – |
| C=C(NC(=O)C(=C)NC(=O)c1csc(C2=N[C@@H]3c4csc(n4)[C@H]4NC(=O)c5csc(n5)[C@H]([C@](C)(O)[C@@H](C)O)NC(=O)[C@H]5CSC(=N5)/C(=C/C)NC(=O)[C@H]([C@@H](C)O)NC(=O)c5csc(n5)[C@]3(CC2)NC(=O)[C@H](C)NC(=O)C(=C)NC(=O)C(=C)NC(=O)[C@H](C(C)C)N[C@@H]2C=Cc3c([C@H](C)O)cc(nc3[C@H]2O)C(=O)O[C@@H]4C)n1)C(N)=O [NSC285116] | -2.26% | – |
| Cc1c(Cl)cccc1NC(=O)CC1Sc2ccccc2NC1=O (stereo not shown) [NSC634396] | -17.78% | – |
| O=C(O)/C=C\C(=O)O.[N-]=[N+]=Nc1ccc2c(c1)Sc1ccccc1N2CCCCN1CCN(Cc2ccc(C(=O)c3ccccc3)cc2)CC1 [NSC676963] | -97.54% | – |
| CC(=O)O[C@H]1C(=O)[C@@]2(C)[C@H]([C@H](OC(=O)c3ccccc3)[C@]3(O)C[C@H](O)C(C)=C1C3(C)C)[C@]1(OC(C)=O)CO[C@@H]1C[C@@H]2O [NSC330753] | -63.01% | – |
| CCOC(=O)C(C)NC(=O)N(C)C12CC3CC(CC(C3)C1)C2 (stereo not shown) [NSC208913] | -30.10% | – |
| CC(=O)O[C@@H]1C[C@H]2O[C@@H]3C=C(C)CC[C@]3(C)[C@]1(C)[C@]21CO1 [NSC267033] | -8.12% | – |
| CCC1=C(C[C@H]2NCCc3cc(OC)c(OC)cc32)C[C@H]2c3cc(OC)c(OC)cc3CCN2C1 [NSC129414] | -16.26% | – |
| Cc1c(Cl)ccc2c1NC(=O)C2(O)C(C(=O)c1ccccc1)c1ccccc1 (stereo not shown) [NSC635321] | -39.51% | – |
| CC1=NC(C(C)C)C(=O)O1 (stereo not shown) [NSC635968] | -7.14% | – |
| Nc1nc2n[nH]nc2c(=O)[nH]1 [NSC749] | -18.77% | – |
| C=C1C(=O)O[C@H]2/C=C(/CO)[C@H](OC(C)=O)C[C@H](O)/C(C)=C\[C@H](OC(=O)[C@@H](C)CC)[C@H]12 [NSC292663] | -63.04% | – |
| Cl.Nc1ccc(OCCCc2c(-c3ccccc3)nc(N)[nH]c2=O)cc1 [NSC100856] | -59.57% | – |
| CCOc1ccccc1NC(=O)CC1Sc2ccccc2NC1=O (stereo not shown) [NSC637680] | -16.33% | – |
| N#CCCN(CCC#N)c1ccc(/C=C2\N=C(c3cc([N+](=O)[O-])ccc3Cl)OC2=O)cc1 [NSC637916] | -14.05% | – |
| Cc1ccc([S+](c2ccc(C)cc2)c2ccc(C)cc2)cc1 [NSC157930] | -72.47% | – |
| CN(C)c1ccc(/C=C/C(=O)[O-])cc1.CN(C)c1ccc(/C=C/C(=O)[O-])cc1.[Cu+2] [NSC643351] | -4.10% | – |
| O=C1Oc2ccccc2C1C/C(=N\Nc1ccccc1)c1ccccc1O (stereo not shown) [NSC647613] | -29.39% | – |
| CC1=CC23C(COC(=O)C24CO4)C(C(=O)O)=CC3C1C.NCc1ccccc1 (stereo not shown) [NSC136037] | -0.26% | – |
| CC(=O)[O][Pb]([O]C(C)=O)([c]1ccccc1)[c]1ccccc1 [NSC173046] | -141.42% | – |

| Structure (SMILES) | MEAN CpLDH INHIBITION (%) | effect on catalytic activity of recombinant CpLDH (in words) |
| --- | --- | --- |
| O=c1ncccn1C1OC(CO)C(O)C1F (stereo not shown) [NSC625355] | -50.28% | – |
| COc1cc(/C=C2\S/C(=N/Nc3nc(-c4ccc(Br)cc4)cs3)NC2=O)cc(OC)c1OC [NSC657457] | -150.87% | – |
| CCCCCCCCCCCCCCCCOCC(O)CO (stereo not shown) [NSC59269] | 0.04% | – |
| CN(C)c1cccc(/C=C(\C#N)c2ccccc2)c1 [NSC667251] | -17.96% | – |
| CN(C)C[C@H]1CC[C@@H](CN(C)C)C1=O.Cl [NSC640391] | -1.88% | – |
| COC(=O)[C@@H]1[C@H](O)[C@H](C)[C@H](O)[C@H](C)/C=C\C=C(/C)C(=O)Nc2c(C)c(OC(C)=O)c3c(c2O)C(=O)C(C)=C2OCOC(=C23)/C(C)=C/[C@@](C)(O)[C@H](O)[C@@H](C)[C@H]1O [NSC19990] | -27.23% | – |
| Cc1cc2cc3cc(C)c(N)cc3nc2cc1N.Cl [NSC13973] | -3.43% | – |
| CC1=CC(=O)c2cccc(NC3=NCCO3)c21 [NSC664331] | -15.78% | – |
| CCOC(=O)CNC(=O)NC12CC3CC(CC(C3)C1)C2 [NSC208914] | -37.53% | – |
| Cc1ccc(CC2(OCCN(C)C)CCC(C(C)(C)C)CC2)cc1.O=C(O)/C=C/C(=O)O (stereo not shown) [NSC670225] | -54.38% | – |
| C[n+]1ccc(Nc2ccc(NC(=O)c3ccc(Nc4cc[n+](C)c5ccc([N+](=O)[O-])cc45)cc3[N+](=O)[O-])cc2)cc1.Cl [NSC218439] | -11.45% | – |
| C=C(CN(C)C)C(=O)c1ccccc1Cl.Cl [NSC382007] | -43.42% | – |
| O=C1/C(=C\c2cccs2)Oc2ccccc21 [NSC56544] | -23.78% | – |
| CC(C)(O)CCC(O)C(C)(O)C1CCC2(O)C3=CC(=O)C4(O)CC(O)C(O)CC4(C)C3CCC12C.CC(C)(O)CCC(O)C(C)(O)C1CCC2(O)C3=CC(=O)C4CC(O)C(O)CC4(C)C3CCC12C (stereo not shown) [NSC115493] | -100.16% | – |
| CCCn1c(=O)c2ccccc2[n+]2c(-c3ccc([N+](=O)[O-])cc3)csc12.[Br-] [NSC657603] | -45.82% | – |
| CC(C)c1ccc(O)c(=O)cc1 [NSC18805] | -40.28% | – |
| COc1ccccc1[S+]([O-])Nc1ccccc1 (stereo not shown) [NSC676561] | -16.89% | – |
| O=C(Nc1ccc2c(c1)oc(=O)c1ccccc12)C(Cl)Cl [NSC65937] | -25.00% | – |
| C=C(Cl)C(Cl)(CBr)CCC(Br)C(C)(C)Cl (stereo not shown) [NSC662825] | -7.35% | – |
| CNc1nc(N(C)C)nc(N(C)C)n1 [NSC118742] | -28.34% | – |
| COC1C(C)OC(OC2CC(C)(O)Cc3cc4c(c(O)c32)C(=O)c2c(O)cc3c(c2C4=O)OC2OC3(C)C(O)C(N(C)C)C2O)C(OC)C1(C)OC (stereo not shown) [NSC265450] | -83.48% | – |
| CC1=C/C(=C2/N=C(N(C)C)SS2)C(C)=N1.[O-][Cl+3]([O-])([O-])O [NSC622690] | -0.50% | – |

Test system: HCT-8 cells
Assay: Compound cytotoxicity assay (WST-1 cell proliferation reagent)
Protocol: A colorimetric assay using the cell proliferation reagent WST-1 (Roche, USA) for the quantification of cell viability was performed. […] When the cells were confluent, the old medium was replaced with fresh medium with or without varying concentrations of chemical compound. After 24 h of culture, 10 μl of the cell proliferation reagent WST-1, (for quantification of cell viability) was added to each well, mixed and the plates incubated for 1 h at 37 C with 5% CO2 in the dark. […] Three independent assays were performed and the dose–response curves of the means of triplicate assays were generated using GraphPad PRISM software to derive the half maximal inhibitory concentration (IC50) of compounds in HCT-8 cells.

| Structure (SMILES) | IC50 |
| --- | --- |
| Cc1ccc2c(sc(-c3ccc4c(c3)sc(-c3ccc(N(C)C)cc3)[n+]4C)[n+]2C)c1S(=O)(=O)[O-].[Cl-] [NSC71948] | 106 µM |
| O=c1oc2cc(O)ccc2c2oc3cc(O)ccc3c12 [NSC22842] | 83.5 µM |
| O=[N+]([O-])c1ccc2c(N=Nc3c(O)ccc4ccccc34)c(O)cc(S(=O)(=O)[O-])c2c1.[Na+] [NSC73413] | 220 µM |
| O=C1/C(=C/c2ccccc2)CN(C(=O)/C=C/c2ccccc2)C/C1=C\c1ccccc1 [NSC638634] | 157 µM |
| O=C(O)[C@@H]1[C@H](C(=O)O)[C@]2(Cl)C(Cl)=C(Cl)[C@@]1(Cl)C2(Cl)Cl [NSC22225] | 96.8 µM |
| O=C(CC(=O)C(F)(F)F)c1csc2ccccc12 [NSC80396] | 91.9 µM |
| CCOC(C)C(C=NNC(N)=S)=NNC(N)=S (stereo not shown) [NSC82116] | 118 µM |
